Assay results published in PMC9995911, “Lipid environment determines the drug-stimulated ATPase activity of P-glycoprotein” (Frontiers in Molecular Biosciences, 2023).

Assays:
Pgp = biological target: T1, Pgp (Mus musculus, UniProt P21447); experiment: Thermostability of purified Pgp in detergent solution (CPM dye fluorescence on heating); settings: Pgp purified in 0.05% DDM containing 0.01% CHS (DDM/CHS); Pgp in DDM alone ~40 °C
T1 construct: made in house; host or cells: Pichia pastoris
Experimental: Figure S1: CHS increases the thermostability of purified Pgp in DDM detergent solution.
Pgp was purified from microsomal membranes as detailed in Methods in either 0.05% DDM or 0.05% DDM containing 0.01% CHS (DDM/CHS). Samples were incubated with 2 µM of the cysteine-reactive dye 7-Diethylamino-3-(4'-maleimidylphenyl)-4-methylcoumarin (CPM), and the increase in fluorescence upon heating the samples with a temperature ramp of 1 °C/min was monitored with excitation/ emission wavelengths of 384/470 nm. Increase in fluorescence is due to protein unfolding and exposure of reactive cysteines in Pgp. The melting temperature Tm was ~40 °C for Pgp in DDM solution, similar to that reported for Pgp by other methods (Yang et al., […]
2017). […] Representatives of three independent experiments are shown.
(1 picture or pasted object on this page, not shown here)

Mouse mdr1a Pgp = biological target: T2, Mouse mdr1a Pgp (Mus musculus, UniProt P21447); experiment: Verapamil-stimulated ATPase activity of purified Pgp in DDM detergent activated with lipids (detergent-lipid micelles); assay type: biochemical; settings: ATPase in the absence of verapamil; Pgp in DDM activated with 1% of the named lipid (Table 2)
T2 construct: made in house; host or cells: Pichia pastoris
Experimental: All purification buffers contained 50 mM Tris pH 8, 10% glycerol, and 500 mM NaCl (Buffer A). Detergent concentrations were reduced to 0.05% DDM during chromatography. Pgp was eluted from the Strep-Tactin superflow resin (Qiagen, Valencia, CA) in the presence of 1 mM DTT, 1 mM TCEP by competition with 4 mM desthiobiotin.

T1 sequence (P21447 whole entry): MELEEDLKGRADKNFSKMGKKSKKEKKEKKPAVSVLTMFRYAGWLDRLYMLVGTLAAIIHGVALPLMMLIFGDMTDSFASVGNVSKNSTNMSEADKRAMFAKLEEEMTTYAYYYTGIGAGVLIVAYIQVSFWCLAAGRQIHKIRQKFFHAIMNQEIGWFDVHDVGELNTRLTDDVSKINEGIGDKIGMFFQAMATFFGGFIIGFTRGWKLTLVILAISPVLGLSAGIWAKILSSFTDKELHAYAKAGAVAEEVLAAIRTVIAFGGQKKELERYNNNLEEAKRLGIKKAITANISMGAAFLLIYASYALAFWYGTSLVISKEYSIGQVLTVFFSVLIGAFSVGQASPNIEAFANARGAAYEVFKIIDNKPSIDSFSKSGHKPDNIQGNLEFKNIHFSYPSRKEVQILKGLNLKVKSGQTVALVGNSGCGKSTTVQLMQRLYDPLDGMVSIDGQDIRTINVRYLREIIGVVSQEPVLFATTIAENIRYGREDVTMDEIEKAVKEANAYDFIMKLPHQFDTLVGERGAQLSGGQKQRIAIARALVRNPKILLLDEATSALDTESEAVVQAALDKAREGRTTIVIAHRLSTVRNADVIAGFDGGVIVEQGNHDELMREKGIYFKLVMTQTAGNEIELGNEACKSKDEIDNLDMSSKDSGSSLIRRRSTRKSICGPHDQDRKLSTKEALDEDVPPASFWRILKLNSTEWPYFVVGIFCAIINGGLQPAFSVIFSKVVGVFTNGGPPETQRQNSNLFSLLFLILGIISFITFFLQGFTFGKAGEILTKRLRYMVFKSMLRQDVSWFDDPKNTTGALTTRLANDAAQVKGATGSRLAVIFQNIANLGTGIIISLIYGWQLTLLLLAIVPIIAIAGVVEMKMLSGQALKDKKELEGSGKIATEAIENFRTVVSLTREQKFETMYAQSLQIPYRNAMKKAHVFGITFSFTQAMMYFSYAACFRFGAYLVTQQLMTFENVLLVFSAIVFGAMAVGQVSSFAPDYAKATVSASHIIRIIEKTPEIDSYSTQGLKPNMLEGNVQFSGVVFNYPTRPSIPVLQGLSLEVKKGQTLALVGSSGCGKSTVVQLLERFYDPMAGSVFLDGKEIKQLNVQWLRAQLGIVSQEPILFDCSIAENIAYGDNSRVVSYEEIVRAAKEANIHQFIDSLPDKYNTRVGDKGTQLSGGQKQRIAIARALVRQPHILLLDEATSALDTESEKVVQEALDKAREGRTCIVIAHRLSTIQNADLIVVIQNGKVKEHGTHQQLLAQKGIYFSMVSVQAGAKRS
T2 sequence (P21447 whole entry): as above

Row | SMILES | melting temperature Tm of Pgp (Pgp) | Basal activity (Mouse mdr1a Pgp) [µmol/min/mg]
1 | CC(C)CCC[C@@H](C)[C@H]1CC[C@H]2[C@@H]3CC=C4C[C@@H](OC(=O)CCC(=O)O)CC[C@]4(C)[C@H]3CC[C@]12C [CHS, cholesteryl hemisuccinate] | 52 ºC | –
2 | CCCCCCCC/C=C\CCCCCCCC(=O)O[C@H](COC(=O)CCCCCCCCCCCCCCC)COP(=O)([O-])OCC[N+](C)(C)C [POPC only, 1-palmitoyl-2-oleoyl-sn-glycero-3-phosphocholine] | – | 0.05
